From patent publication US20120121540A1 (priority 2007, published 2012)

Experiment: HCV replicon assay (luciferase reporter, ET cell line)
Format: cell-based
Details: Hepatitis C virus, HCV replicon luciferase activity in ET cells
Method in brief: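 ET cells carry a stable luciferase-ubiquitin-neo/NS3-5B subgenomic HCV replicon with adaptive mutations. Compounds (0.1 nM to […], 0.5% DMSO) were added 24 h after plating, and luciferase was read 48-72 h later. EC50 came from 10-point 2-fold dilutions fitted to a Hill equation; TC50 was measured in parallel by WST-1.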

| Compound | inhibition at 10 µM [%] |
| --- | --- |
| O=C(c1nc2c(C(F)(F)F)cc(-c3ccoc3)cn2c1Cl)N1CCC(c2ccccn2)C1 (stereo not shown) [Compound 468, (3-Chloro-6-furan-3-yl-8-trifluoromethyl-imidazo[1,2-a]pyridin-2-yl)-(3-pyridin-2-yl-pyrrolidin-1-yl)-methanone] | 93.9 |
| O=C(c1nc2c(C(F)(F)F)cc(-c3ccoc3)cn2c1Cl)N1N=C(c2ccoc2)CC1c1cc(Br)ccc1O (stereo not shown) [Compound 472, [5-(5-Bromo-2-hydroxy-phenyl)-3-furan-3-y-4,5-dihydro-pyrazol-1-yl]-(3-chloro-6-furan-3-yl-8-trifluoromethyl-imidazo[1,2-a]pyridin-2-yl)-methanone] | 86.6 |
| Fc1cccc(C2CCN(Cc3cn4cc(-c5ccoc5)cc(C(F)(F)F)c4n3)C2)c1 (stereo not shown) [Compound 474, 2-[3-(3-Fluoro-phenyl)-pyrroidin-1-ylmethyl]-6-furan-3-yl-8-trifluoromethyl-imidazo[1,2-a]pyridine] | 0.7 |
| Cc1noc(C2CCN(C(=O)c3nc4c(C(F)(F)F)cc(-c5ccoc5)cn4c3Cl)C2)n1 (stereo not shown) [Compound 475, (3-Chloro-6-furan-3-yl-8-trifluoromethyl-imidaz[1,2-a]pyridin-2-yl)-[3-(3-methyl-[1,2,4]oxadiazol-5-yl)-pyrrolidin-1-yl]-methanone] | 93 |
| Cc1noc(C2CCN(C(=O)c3nc4c(C(F)(F)F)cc(-c5cn[nH]c5)cn4c3Cl)C2)n1 (stereo not shown) [Compound 476, [3-Chloro-6-(1H-pyrazol-4-yl)-8-trifluoromethyl-imidazo[1,2-a]pyridin-2-yl]-[3-(3-methyl-[1,2,4]oxadiazol-5-yl)-pyrrolidin-1-yl]-methanone] | 72 |
| O=C(c1nc2c(C(F)(F)F)cc(-c3ccoc3)cn2c1Cl)N1CCC(c2ccccc2)=N1 [Compound 477, (3-Chloro-6-furan-3-yl-8-trifluoromethyl-imidazo[1,2-a]pyridin-2-yl)-(3-phenyl-4,5-dihydro-pyrazol-1-yl)-methanone] | 97.6 |
| CC(C)(C)OC(=O)N[C@@H]1CCN(C(=O)c2nc3c(C(F)(F)F)cc(-c4ccoc4)cn3c2Cl)C1 [Compound 478, [1-(3-Chloro-6-furan-3-yl-8-trifluoromethyl-imidazo[1,2-a]pyridine-2-carbonyl)-pyrrolidin-3-yl]-carbamic acid tert-butyl ester] | 4.9 |
| CS(=O)(=O)N[C@@H]1CCN(C(=O)c2nc3c(C(F)(F)F)cc(-c4ccoc4)cn3c2Cl)C1 [Compound 480, N-[1-(3-Chloro-6-furan-3-yl-8-trifluoromethyl-imidazo[1,2-a]pyridine-2-carbonyl)-pyrrolidin-3-yl]-methanesulfonamide] | 47.7 |
| O=C1OC(c2ccccc2)CN1Cc1cn2cc(-c3ccoc3)cc(C(F)(F)F)c2n1 (stereo not shown) [Compound 483, 3-(6-Furan-3-yl-8-trifluoromethyl-imidazo[1,2-a]pyridin-2-ylmethyl)-5-phenyl-oxazolidin-2-one] | 99.9 |
| O=C(NCc1cccs1)c1nc2c(C(F)(F)F)cc(-c3cn[nH]c3)cn2c1-c1cn[nH]c1 [Compound 485, 3,6-Bis-(1H-pyrazol-4-yl)-8-trifluoromethyl-imidazo[1,2-a]pyridine-2-carboxylic acid (thiophen-2-ylmethyl)-amide] | 58.9 |
| O=C(c1nc2c(C(F)(F)F)cc(-c3cn[nH]c3)cn2c1-c1cn[nH]c1)N1CCC(c2cccc(F)c2)C1 (stereo not shown) [Compound 486, [3,6-Bis-(1H-pyrazol-4-yl)-8-trifluoromethyl-imidazo[1,2-a]pyridin-2-yl]-[3-(3-fluoro-phenyl)-pyrrolidin-1-yl]-methanone] | 65.8 |
| O=C(c1nc2c(C(F)(F)F)cc(-c3ccoc3)cn2c1Cl)N1CCC1c1ccccc1 (stereo not shown) [Compound 487, (3-Chloro-6-furan-3-yl-8-trifluoromethyl-imidazo[1,2-a]pyridin-2-yl)-(2-phenyl-azetidin-1-yl)-methanone] | 94.2 |
| O=C(c1nc2c(C(F)(F)F)cc(-c3ccoc3)cn2c1Cl)N1CC(c2ccc(C(F)(F)F)cc2)C1 [Compound 488] | 60.2 |
| CC(C)(C)OC(=O)NC1CN(C(=O)c2nc3c(C(F)(F)F)cc(-c4ccoc4)cn3c2Cl)C1 [Compound 489, [1-(3-Chloro-6-furan-3-yl-8-trifluoromethyl-imidazo[1,2-a]pyridine-2-carbonyl)-azetidin-3-yl]-carbamic Acid Tert-butyl Ester] | 33 |
| CS(=O)(=O)NC1CN(C(=O)c2nc3c(C(F)(F)F)cc(-c4ccoc4)cn3c2Cl)C1 [Compound 491, N-[1-(3-Chloro-6-furan-3-yl-8-trifluoromethyl-imidazo[1,2-a]pyridine-2-carbonyl)-azetidin-3-yl]-methanesulfonamide] | 92.4 |
| O=C(c1nc2c(C(F)(F)F)cc(-c3ccoc3)cn2c1Cl)N1CC(NS(=O)(=O)c2ccccc2)C1 [Compound 492, N-[1-(3-Chloro-6-furan-3-yl-8-trifluoromethyl-imidazo[1,2-a]pyridine-2-carbonyl)-azetidin-3-yl]-benzenesulfonamide] | 97.4 |

| Compound | inhibition at 10 µM [%] |
| --- | --- |
| O=C(c1nc2c(C(F)(F)F)cc(-c3ccoc3)cn2c1Cl)N1CC(NS(=O)(=O)Cc2ccccc2)C1 [Compound 493, N-[1-(3-Chloro-6-furan-3-yl-8-trifluoromethyl-imidazo[1,2-a]pyridine-2-carbonyl)-azetidin-3-yl]-C-phenyl-methanesulfonamide] | 91.4 |
| O=C(c1nc2c(C(F)(F)F)cc(-c3ccoc3)cn2c1Cl)N1CC(NS(=O)(=O)c2ccccc2F)C1 [Compound 494, N-[1-(3-Chloro-6-furan-3-yl-8-trifluoromethyl-imidazo[1,2-a]pyridine-2-carbonyl)-azetidin-3-yl]-2-fluoro-benzenesulfonamide] | 88.5 |
| O=C(c1nc2c(C(F)(F)F)cc(-c3ccoc3)cn2c1Cl)N1CC(NS(=O)(=O)c2cccc(F)c2)C1 [Compound 495, N-[1-(3-Chloro-6-furan-3-yl-8-trifluoromethyl-imidazo[1,2-a]pyridine-2-carbonyl)-azetidin-3-yl]-3-fluoro-benzenesulfonamide] | 94.2 |
| O=C(c1nc2c(C(F)(F)F)cc(-c3ccoc3)cn2c1Cl)N1CC(NS(=O)(=O)c2ccc(F)cc2)C1 [Compound 496, N-[1-(3-Chloro-6-furan-3-yl-8-trifluoromethyl-imidazo[1,2-a]pyridine-2-carbonyl)-azetidin-3-yl]-4-fluoro-benzenesulfonamide] | 94.3 |
| CC(C)S(=O)(=O)NC1CN(C(=O)c2nc3c(C(F)(F)F)cc(-c4ccoc4)cn3c2Cl)C1 [Compound 497, Propane-2-sulfonic acid [1-(3-chloro-6-furan-3-yl-8-trifluoromethyl-imidazo[1,2-a]pyridine-2-carbonyl)-azetidin-3-yl]-amide] | 97.8 |
| O=C(c1nc2c(C(F)(F)F)cc(-c3ccoc3)cn2c1Cl)N1CC(NS(=O)(=O)C2CC2)C1 [Compound 498, Cyclopropanesulfonic Acid[1-(3-chloro-6-furan-3-yl-8-trifluoromethyl-imidazo[1,2-a]pyridine-2-carbonyl)-azetidin-3-yl]-amide] | 95 |
| O=C(c1nc2c(C(F)(F)F)cc(-c3ccoc3)cn2c1Cl)N1CC(NS(=O)(=O)c2cccs2)C1 [Compound 499, Thiophene-2-sulfonic acid [1-(3-chloro-6-furan-3-yl-8-trifluoromethyl-imidazo[1,2-a]pyridine-2-carbonyl)-azetidin-3-yl]-amide] | 93.4 |
| CCS(=O)(=O)NC1CN(C(=O)c2nc3c(C(F)(F)F)cc(-c4ccoc4)cn3c2Cl)C1 [Compound 500, Ethanesulfonic Acid[1-(3-chloro-6-furan-3-yl-8-trifluoromethyl-imidazo[1,2-a]pyridine-2-carbonyl)-azetidin-3-yl]-amide] | 98 |
| CN(C)S(=O)(=O)NC1CN(C(=O)c2nc3c(C(F)(F)F)cc(-c4ccoc4)cn3c2Cl)C1 [Compound 504] | 98.9 |
| CS(=O)(=O)N1CC(NC(=O)c2nc3c(C(F)(F)F)cc(-c4ccoc4)cn3c2Cl)C1 [Compound 510, 3-Chloro-6-furan-3-yl-8-trifluoromethyl-imidazo[1,2-a]pyridine-2-carboxylic Acid (1-methanesulfonyl-azetidin-3-yl)-amide] | 24 |
| O=C(NC1CN(S(=O)(=O)c2ccccc2)C1)c1nc2c(C(F)(F)F)cc(-c3ccoc3)cn2c1Cl [Compound 511, 3-Chloro-6-furan-3-yl-8-trifluoromethyl-imidazo[1,2-a]pyridine-2-carboxylic Acid (1-benzenesulfonyl-azetidin-3-yl)-amide] | 98.6 |
| O=C(NC1CN(C(=O)Cc2ccccc2)C1)c1nc2c(C(F)(F)F)cc(-c3ccoc3)cn2c1Cl [Compound 514, 3-Chloro-6-furan-3-yl-8-trifluoromethyl-imidazo[1,2-a]pyridine-2-carboxylic Acid (1-phenylacetyl-azetidin-3-yl)-amide] | 6.6 |
| CS(=O)(=O)NC1CN(C(=O)c2cn3cc(-c4ccoc4)cc(C(F)(F)F)c3n2)C1 [Compound 519, N-[1-(6-Furan-3-yl-8-trifluoromethyl-imidazazo[1,2-a]pyridine-2-carbonyl)-azetidin-3-yl]-methanesulfonamide] | 84.7 |
| CS(=O)(=O)NC1CN(C(=O)c2nc3c(C(F)(F)F)cc(-c4cn[nH]c4)cn3c2Cl)C1 [Compound 521, N-{1-[3-Chloro-6-(1H-pyrazol-4-yl)-8-trifluoromethyl-imidazo[1,2-a]pyridine-2-carbonyl]-azetidin-3-yl}-methanesulfonamide] | 72.8 |
| CS(=O)(=O)NC1CN(C(=O)c2nc3c(C(F)(F)F)cc(-c4cn[nH]c4)cn3c2Br)C1 [Compound 522, N-{1-[3-Bromo-6-(1H-pyrazol-4-yl)-8-trifluoromethyl-imidazo[1,2-a]pyridine-2-carbonyl]-azetidin-3-yl}-methanesulfonamide] | 88.6 |
